Results taken from patent publication US7081468B2, “Ortho-substituted anthranilic acid amides and their use as medicaments” (Schering AG, priority 2000, dated 2006).

How the values were obtained:
KDR kinase = KDR kinase (Homo sapiens, UniProt P35968); assay: Inhibition of the KDR kinase activity (33P-ATP, poly-(Glu4Tyr) filter assay); type: biochemical; conditions: 10 minutes at room temperature
Experimental: Solutions Required for the Tests
• Stock solution A: 3 mmol of ATP in water, pH 7.0 (−70° C.) • Stock solution B: g-33P-ATP 1 mCi/100 μl • Stock solution C: poly-(Glu4Tyr) 10 mg/ml in water Solution for Dilutions • Substrate solvent: 10 mmol of DTT, 10 mmol of manganese chloride, 100 mmol of magnesium chloride • Enzyme solution: 120 mmol of tris/HCl, pH 7.5, 10 μM of sodium vanadium oxide Sample Application 1 Inhibition of the KDR Kinase Activity in the Presence of the Compounds According to the Invention
In a microtiter plate (without protein binding) that tapers to a point, 10 μl of substrate mix (10 μl of volume of ATP stock solution A+25 μCi of g-33P-ATP (about 2.5 μl of stock solution B)+30 μl of poly-(Glu4Tyr) stock solution C+1.21 ml of substrate solvent), 10 μl of inhibitor solution (substances corresponding to the dilutions, 3% DMSO in substrate solvent as a control) and 10 μl of enzyme solution (11.25 μg of enzyme stock solution (KDR or FLT-1 kinase) are added at 4° C. in 1.25 ml of enzyme solution (dilute). It is thoroughly mixed and incubated for 10 minutes at room temperature. Then, 10 μl of stop solution (250 mmol of EDTA, pH 7.0) is added, mixed, and 10 μl of the solution is transferred to a P 81 phosphocellulose filter. Then, it is washed several times in 0.1 M phosphoric acid. The filter paper is dried, coated with Meltilex and measured in a microbeta counter.
The IC50 values are determined from the inhibitor concentration that is necessary to inhibit the phosphate incorporation to 50% of the uninhibited incorporation after removal of the blank reading (EDTA-stopped reaction).

C-Kit = C-Kit (Homo sapiens, UniProt P10721); assay: C-Kit-isolated kinase-inhibition test; type: biochemical; conditions: 10 minutes incubation
C-Kit, sequence (P10721 26-976): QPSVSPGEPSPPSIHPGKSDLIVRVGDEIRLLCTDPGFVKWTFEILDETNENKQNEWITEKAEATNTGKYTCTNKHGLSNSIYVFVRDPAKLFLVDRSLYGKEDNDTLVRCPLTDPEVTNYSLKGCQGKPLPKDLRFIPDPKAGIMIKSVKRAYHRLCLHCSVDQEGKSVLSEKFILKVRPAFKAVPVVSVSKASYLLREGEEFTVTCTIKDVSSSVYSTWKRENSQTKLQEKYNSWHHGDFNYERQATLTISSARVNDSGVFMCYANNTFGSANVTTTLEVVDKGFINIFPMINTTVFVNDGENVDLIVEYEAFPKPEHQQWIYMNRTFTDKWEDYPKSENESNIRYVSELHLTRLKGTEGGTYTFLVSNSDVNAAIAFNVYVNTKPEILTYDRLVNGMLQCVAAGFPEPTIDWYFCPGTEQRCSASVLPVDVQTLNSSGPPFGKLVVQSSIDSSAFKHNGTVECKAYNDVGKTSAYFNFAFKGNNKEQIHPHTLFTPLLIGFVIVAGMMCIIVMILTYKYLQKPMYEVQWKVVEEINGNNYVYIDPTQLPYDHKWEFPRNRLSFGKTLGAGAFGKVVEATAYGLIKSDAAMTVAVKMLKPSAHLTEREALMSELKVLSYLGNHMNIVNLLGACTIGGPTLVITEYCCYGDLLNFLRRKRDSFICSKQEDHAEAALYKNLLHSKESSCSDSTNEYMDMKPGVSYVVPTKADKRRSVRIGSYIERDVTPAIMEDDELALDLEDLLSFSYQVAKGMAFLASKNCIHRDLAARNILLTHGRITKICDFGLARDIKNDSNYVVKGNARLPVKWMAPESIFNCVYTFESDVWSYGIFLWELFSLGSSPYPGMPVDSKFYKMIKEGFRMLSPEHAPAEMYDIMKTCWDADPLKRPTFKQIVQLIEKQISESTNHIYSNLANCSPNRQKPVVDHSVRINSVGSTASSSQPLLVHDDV
Experimental: C-Kit-Isolated Kinase-Inhibition Test
Assay Solutions Substrate Solutions for 125 Assays:
10 μl of ATP (37.5 μM), 25 μCi of γ33P-ATP (˜+2.5 μl of Amersham redivue solution) and 10 μl of poly-(glu,tyr) are mixed with 1.23 ml of solvent (1×).
The compounds are brought to the desired concentration in the solvent (1×).
The corresponding enzymatic preparation is brought to the necessary concentration with the solvent (1×) to obtain 1.24 ml. Then, 12.5 μl of sodium vanadate solution is added.
The components are added in the following sequence to a microtiter plate with round or stippled floors:
10 μl of the inhibitor in 3× final concentration,
10 μl of substrate mixture,
said components are mixed, and the reaction is started by adding:
10 μl of enzyme preparation.
The batch is incubated for 10 minutes and then brought to a halt by adding 10 μl of stop solution. 10 μl of the thus treated batch is added to the phosphocellulose filter, rewashed in phosphoric acid, then dried and then melted in a meltilex scintillator and measured.

KDR kinase, sequence (P35968 20-1356): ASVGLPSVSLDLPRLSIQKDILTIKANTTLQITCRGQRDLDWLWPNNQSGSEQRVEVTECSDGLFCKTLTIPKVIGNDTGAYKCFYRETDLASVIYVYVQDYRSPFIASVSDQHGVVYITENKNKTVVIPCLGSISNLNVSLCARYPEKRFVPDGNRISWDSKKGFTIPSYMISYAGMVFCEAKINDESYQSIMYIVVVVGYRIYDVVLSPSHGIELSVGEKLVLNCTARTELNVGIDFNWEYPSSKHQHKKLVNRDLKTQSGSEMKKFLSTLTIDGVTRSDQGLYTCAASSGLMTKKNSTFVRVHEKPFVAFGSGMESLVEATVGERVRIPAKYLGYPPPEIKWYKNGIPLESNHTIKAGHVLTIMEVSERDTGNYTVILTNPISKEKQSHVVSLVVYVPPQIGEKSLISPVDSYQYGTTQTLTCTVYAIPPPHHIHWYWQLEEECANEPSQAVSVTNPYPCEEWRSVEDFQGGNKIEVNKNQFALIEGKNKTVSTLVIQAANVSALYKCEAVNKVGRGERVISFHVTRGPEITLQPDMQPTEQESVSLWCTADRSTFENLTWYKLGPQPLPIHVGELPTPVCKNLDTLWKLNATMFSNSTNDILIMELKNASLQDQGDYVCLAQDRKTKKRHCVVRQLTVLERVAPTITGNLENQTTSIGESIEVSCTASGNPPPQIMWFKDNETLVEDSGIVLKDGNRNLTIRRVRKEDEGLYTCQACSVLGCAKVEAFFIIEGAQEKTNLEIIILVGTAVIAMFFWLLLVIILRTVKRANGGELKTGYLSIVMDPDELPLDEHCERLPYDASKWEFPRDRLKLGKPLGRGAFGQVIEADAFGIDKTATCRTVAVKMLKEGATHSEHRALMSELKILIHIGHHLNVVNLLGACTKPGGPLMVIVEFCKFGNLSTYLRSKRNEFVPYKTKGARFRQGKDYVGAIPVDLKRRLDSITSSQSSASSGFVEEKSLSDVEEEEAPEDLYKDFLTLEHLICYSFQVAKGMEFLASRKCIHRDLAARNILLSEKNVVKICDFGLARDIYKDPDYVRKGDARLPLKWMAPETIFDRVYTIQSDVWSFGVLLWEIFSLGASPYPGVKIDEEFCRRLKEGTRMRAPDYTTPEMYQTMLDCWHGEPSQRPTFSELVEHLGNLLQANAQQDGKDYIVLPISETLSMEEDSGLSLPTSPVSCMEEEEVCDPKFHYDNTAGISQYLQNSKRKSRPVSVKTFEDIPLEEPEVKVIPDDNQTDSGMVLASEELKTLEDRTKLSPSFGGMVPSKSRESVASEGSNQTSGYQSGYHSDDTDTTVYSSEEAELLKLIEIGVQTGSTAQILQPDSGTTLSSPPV

IC50 (KDR kinase)	IC50 (C-Kit)	melting point	SMILES
200 nM	> 10000 nM	198 to 200 °C	O=C(Nc1cc2cc(Br)ccc2oc1=O)c1ccccc1NCc1ccncc1 [Example 7]
2 nM	2000 nM	–	O=C(Nc1cc(C(F)(F)F)ccc1F)c1ccccc1NCc1ccncc1 [Example 15]
40 nM	–	–	Cc1cc2cn[nH]c2cc1NC(=O)c1ccccc1NCc1ccncc1 [Example 9]
1 nM	2000 nM	135.8 °C	O=C(Nc1ncc2ccccc2c1Br)c1ccccc1NCc1ccncc1 [Example 26]
3 nM	6000 nM	–	O=C(Nc1cc2ccccc2oc1=O)c1ccccc1NCc1ccncc1 [Example 1, N-[2-Oxo-2H-1-benzopyran-3-yl-]-2-[(4-pyridyl)methyl]amino-benzoic acid amide]
10 nM	> 10000 nM	171 to 172 °C	COc1ccc2cc(NC(=O)c3ccccc3NCc3ccncc3)c(=O)oc2c1 [Example 5]
10 nM	> 10000 nM	236.7 °C	O=C(Nc1cc2[nH]ncc2cc1Cl)c1ccccc1NCc1ccncc1 [Example 10]
1 nM	5000 nM	105 °C	O=C(Nc1cc(C(F)(F)F)ccc1Cl)c1ccccc1NCc1ccncc1 [Example 14]
–	> 10000 nM	68 °C	O=C(Nc1cc(C(F)(F)F)ccc1C(F)(F)F)c1ccccc1NCc1ccncc1 [Example 17]
50 nM	5000 nM	135 °C	COc1ccc(C(F)(F)F)cc1NC(=O)c1ccccc1NCc1ccncc1 [Example 13]
50 nM	500 nM	172 °C	Cc1cc2cc(Cl)ccc2nc1NC(=O)c1ccccc1NCc1ccc(O)nc1 [Example 28]
1000 nM	> 10000 nM	224.2 °C	Cc1cc2[nH]ncc2cc1NC(=O)c1ccccc1NCc1ccncc1 [Example 11]
200 nM	–	182 to 184 °C	O=C(Nc1cc2cc(Cl)ccc2oc1=O)c1ccccc1NCc1ccncc1 [Example 6]
200 nM	> 10000 nM	–	O=C(Nc1cc2cn[nH]c2cc1Cl)c1ccccc1NCc1ccncc1 [Example 2, N-(6-Chloroindazol-5-yl)-2-[(4-pyridyl)methyl]amino-benzoic acid amide]
30 nM	8000 nM	191.2 °C	Cc1cc2oc(=O)ccc2cc1NC(=O)c1ccccc1NCc1ccncc1 [Example 3]
